The record followed here is patent US9067894B1, “Compound, composition, and method of activating GIRK potassium channel and use of same for treating conditions of interest” (Vanderbilt University, priority 2013, dated 2015).

This assay deals with T1, GIRK1/4 (Homo sapiens, UniProt P48544+P48549).
T1 construct: expressed in transfected cells; host or cells: HEK-293
T1 sequence (P48549 1-501): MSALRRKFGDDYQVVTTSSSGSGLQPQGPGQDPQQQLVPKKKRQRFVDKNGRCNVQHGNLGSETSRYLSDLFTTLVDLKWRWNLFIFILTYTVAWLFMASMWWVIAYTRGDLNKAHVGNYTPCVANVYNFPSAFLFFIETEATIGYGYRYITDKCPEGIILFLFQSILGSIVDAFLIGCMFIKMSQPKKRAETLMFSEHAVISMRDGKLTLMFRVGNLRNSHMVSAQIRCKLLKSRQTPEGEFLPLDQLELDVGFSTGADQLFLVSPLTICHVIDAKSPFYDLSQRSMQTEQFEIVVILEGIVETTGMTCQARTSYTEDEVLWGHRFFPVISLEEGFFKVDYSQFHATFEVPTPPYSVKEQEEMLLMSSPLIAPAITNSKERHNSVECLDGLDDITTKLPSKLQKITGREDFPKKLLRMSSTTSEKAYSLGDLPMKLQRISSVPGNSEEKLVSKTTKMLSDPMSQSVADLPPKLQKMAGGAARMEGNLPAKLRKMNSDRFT
T1 sequence (P48544 1-419): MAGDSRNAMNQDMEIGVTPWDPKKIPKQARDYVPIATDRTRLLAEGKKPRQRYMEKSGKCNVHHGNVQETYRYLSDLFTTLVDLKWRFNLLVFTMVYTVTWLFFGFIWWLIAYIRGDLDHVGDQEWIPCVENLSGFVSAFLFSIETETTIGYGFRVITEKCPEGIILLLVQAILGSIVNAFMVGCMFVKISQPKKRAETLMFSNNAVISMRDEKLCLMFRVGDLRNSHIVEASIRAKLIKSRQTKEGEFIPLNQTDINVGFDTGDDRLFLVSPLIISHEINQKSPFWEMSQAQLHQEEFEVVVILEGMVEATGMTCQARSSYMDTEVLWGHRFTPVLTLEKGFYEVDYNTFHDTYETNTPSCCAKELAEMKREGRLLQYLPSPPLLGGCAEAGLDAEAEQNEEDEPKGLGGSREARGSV
As to the kind of experiment: Thallium flux assay, HEK-293 cells expressing GIRK1/4. In kind it is cell-based. The settings on record: cell line GIRK1-4; average ± SEM. An excerpt:
Cell Line Construction and Cell Culture. HEK-293 cells co-expressing human GIRK1/2 and rat mGlu8 were generated as previously described (Niswender et al., 2008). A HEK-293 cell line (ATCC, Manassas, Va.) expressing human GIRK1 and human GIRK2 was constructed by transfecting HEK-293 cells with GIRK1 and GIRK2 (Origene, Rockville, Md.) cloned into the pBudCE4.1 vector (Life Technologies, Carlsbad, Calif.) using FuGene 6 (Promega, Madison, Wis.) transfection reagent. Unless otherwise noted, other ion channel-expressing cells were prepared by transfecting HEK-293 cells with individual or combinations of subunits: GIRK1, pCMV6-A-BSD; GIRK2, pCMV6-A-puro; GIRK3, pCMV6-A-hygro; GIRK4, pCMV6-A-AC; Kv7.4, pIRESneo3. The Kir2.1 and hERG-expressing cell lines were made by transfecting T-REx-293 cells (Life Technologies, Carlsbad, Calif.) with Kir2.1 and Kv11.1, respectively, cloned into pcDNA5TO. Monoclonal cell lines were produced by limiting-dilution cloning of antibiotic-resistant cells and functional selection using the thallium flux assay described below. Unless otherwise noted, cells were maintained in Minimal Essential Medium, Alpha Medium (Mediatech, Manassas, Va.) supplemented with 10% fetal bovine serum (Sigma-Aldrich, Saint Louis, Mo.) and GlutaGro (Mediatech, Manassas, Va.), referred to henceforth as cell culture medium. […]

By EC50 is commonly meant the concentration at which the effect is half-maximal. For `Cc1cc(NC(=O)Nc2ccc(F)c(F)c2)n(-c2ccccc2)n1` [VU0456810, 1-(3,4-difluorophenyl)-3-(3-methyl-1-phenyl-1H-pyrazol-5-yl)urea], the EC50 came out at 0.887 ± 0.266 µM and the “EC50 Thallium Flux” value is “able to activate”.
